Data set [1] deals with cocultures of keratinocytes and of melanocytes. The data set is described as follows: Inhibition of melanin synthesis (ratio of thiouracil to leucine incorporation) in keratinocyte/melanocyte cocultures. It counts as cell-based. The procedure:
(§1) The modulating effect with regard to melanogenesis of the compounds tested was measured according to the method described in Patent FR-A-2 734 825 and in the paper by R. Schmidt, P. Krien and M. Régnier, Anal. Biochem., 235(2), 113-18, 1996. This test is carried out on cocultures of keratinocytes and of melanocytes.
(§2) For the compound tested, the following were determined:
the inhibitory activity with regard to the synthesis of melanin, by estimating the ratio of the incorporation of thiouracil to the incorporation of leucine, with respect to 100% of the control (the control corresponds to the test carried out without compound to be tested). The IC50 (concentration at which the synthesis of melanin is inhibited by 50%) values were determined.

The test system is the same in data set [2]. Kind of data set: Cytotoxicity by estimating the incorporation of leucine in keratinocyte/melanocyte cocultures. It counts as cell-based. The procedure: as §1, §2
the cytotoxicity, by estimating the incorporation of leucine, […]

SMILES strings stand for the structures.

Consider `CC(=O)OC[C@H]1O[C@@H](n2cnc3c(N)ncnc32)[C@@H]2OC(C)(C)O[C@@H]21` [Compound H, 2′,3′-isopropylidene-5′-acetyladenosine], for which the IC50 in data set [1] (ratio of thiouracil to leucine incorporation, with respect to 100% of the control, read-out: IC50 (concentration at which the synthesis of melanin is inhibited by 50%)) amounted to 35 µM. Besides, the Cytotoxicity entry in data set [2] is on record as “No”.
On to `Nc1ncnc2c1ncn2[C@@H]1O[C@H](CO)[C@@H](O)[C@H]1O` [adenosine, reference compound], for which the inhibition at 100 µM in data set [1] (at the concentration of 100 μM, read-out: melanin synthesis inhibited) came to 20%.

The values above are taken from patent US20070258921A1, “PROCESS FOR DEPIGMENTING THE SKIN” (L'OREAL, priority 2006, published 2007).
